Source: ChEMBL document CHEMBL3244120, “Monomethylthio analogues of 1-(2,4,5-trimethoxyphenyl)-2-aminopropane” (J Med Chem, 1977)

Assays:
Oryctolagus cuniculus [1] = experiment: Hyperthermic activity in New Zealand rabbit assessed as increase in rectal temperature measured as time to reach peak effect at 7.1 umol/kg administered in marginal ear vein as solution of amine hydrochloride in nonpyrogenic saline; format: functional, Rectum
Oryctolagus cuniculus [2] = experiment: Hyperthermic activity in New Zealand rabbit at 0.25 to 21.2 umol/kg administered in marginal ear vein as solution of amine hydrochloride in nonpyrogenic saline by time-temperature curve integration method relative to l-(2,5-dimethoxy-4-methylphenyl)-2-aminopropane; format: functional
Oryctolagus cuniculus [3] = experiment: Hyperthermic activity in New Zealand rabbit assessed as mean maximum rise in rectal temperature at 0.25 to 21.2 umol/kg administered in marginal ear vein as solution of amine hydrochloride in nonpyrogenic saline relative to l-(2,5-dimethoxy-4-methylphenyl)-2-aminopropane; format: functional, Rectum
Brain [4] = experiment: Drug uptake in Sprague-Dawley rat brain assessed as R to S enantiomeric ratio at 30 mg/kg, ip after 30 mins by electron-capture gas chromatographic analysis; format: ADME, organism-based; parameters: dose 30 mg/kg, route intraperitoneal; settings: in vivo, 0.5 h
Brain [5] = experiment: Drug uptake in Sprague-Dawley rat brain assessed as R to S enantiomeric ratio at 30 mg/kg, ip after 15 mins by electron-capture gas chromatographic analysis; format: ADME, organism-based; parameters: dose 30 mg/kg, route intraperitoneal; settings: in vivo, 0.25 h
Brain [6] = experiment: Drug uptake in Sprague-Dawley rat brain assessed as R to S enantiomeric ratio at 30 mg/kg, ip after 60 mins by electron-capture gas chromatographic analysis; format: ADME, organism-based; parameters: dose 30 mg/kg, route intraperitoneal; settings: in vivo, 1 h
Oryctolagus cuniculus [7] = experiment: Hyperthermic activity in New Zealand rabbit assessed as mean maximum rise in rectal temperature at 7.1 umol/kg administered in marginal ear vein as solution of amine hydrochloride in nonpyrogenic saline; format: functional, Rectum
Oryctolagus cuniculus [8] = experiment: Hyperthermic activity in New Zealand rabbit assessed as dose required for 1 degC rise in rectal temperature administered in marginal ear vein as solution of amine hydrochloride in nonpyrogenic saline; format: functional, Rectum
Oryctolagus cuniculus [9] = experiment: Hyperthermic activity in New Zealand rabbit assessed as increase in rectal temperature measured as time to reach peak effect at 14.2 umol/kg administered in marginal ear vein as solution of amine hydrochloride in nonpyrogenic saline; format: functional, Rectum
Oryctolagus cuniculus [10] = experiment: Hyperthermic activity in New Zealand rabbit assessed as mean maximum rise in rectal temperature at 14.2 umol/kg administered in marginal ear vein as solution of amine hydrochloride in nonpyrogenic saline; format: functional, Rectum
Oryctolagus cuniculus [11] = experiment: Hyperthermic activity in New Zealand rabbit assessed as increase in rectal temperature measured as time to reach peak effect at 10.6 umol/kg administered in marginal ear vein as solution of amine hydrochloride in nonpyrogenic saline; format: functional, Rectum
Oryctolagus cuniculus [12] = experiment: Hyperthermic activity in New Zealand rabbit assessed as increase in rectal temperature measured as time to reach peak effect at 5.3 umol/kg administered in marginal ear vein as solution of amine hydrochloride in nonpyrogenic saline; format: functional, Rectum
Oryctolagus cuniculus [13] = experiment: Hyperthermic activity in New Zealand rabbit assessed as increase in rectal temperature measured as time to reach peak effect at 21.3 umol/kg administered in marginal ear vein as solution of amine hydrochloride in nonpyrogenic saline; format: functional, Rectum
Oryctolagus cuniculus [14] = experiment: Hyperthermic activity in New Zealand rabbit assessed as mean maximum rise in rectal temperature at 5.3 umol/kg administered in marginal ear vein as solution of amine hydrochloride in nonpyrogenic saline; format: functional, Rectum
Oryctolagus cuniculus [15] = experiment: Hyperthermic activity in New Zealand rabbit assessed as mean maximum rise in rectal temperature at 10.6 umol/kg administered in marginal ear vein as solution of amine hydrochloride in nonpyrogenic saline; format: functional, Rectum
Oryctolagus cuniculus [16] = experiment: Hyperthermic activity in New Zealand rabbit assessed as mean maximum rise in rectal temperature at 21.3 umol/kg administered in marginal ear vein as solution of amine hydrochloride in nonpyrogenic saline; format: functional, Rectum
Brain [17] = experiment: Drug uptake in Sprague-Dawley rat brain assessed as R to S enantiomeric ratio at 30 mg/kg, ip after 120 mins by electron-capture gas chromatographic analysis; format: ADME, organism-based; parameters: dose 30 mg/kg, route intraperitoneal; settings: in vivo, 2 h
Oryctolagus cuniculus [18] = experiment: Hyperthermic activity in New Zealand rabbit assessed as mean maximum rise in rectal temperature at 0.67 umol/kg administered in marginal ear vein as solution of amine hydrochloride in nonpyrogenic saline; format: functional, Rectum
Oryctolagus cuniculus [19] = experiment: Hyperthermic activity in New Zealand rabbit assessed as increase in rectal temperature measured as time to reach peak effect at 0.22 umol/kg administered in marginal ear vein as solution of amine hydrochloride in nonpyrogenic saline; format: functional, Rectum
Oryctolagus cuniculus [20] = experiment: Hyperthermic activity in New Zealand rabbit assessed as increase in rectal temperature measured as time to reach peak effect at 2 umol/kg administered in marginal ear vein as solution of amine hydrochloride in nonpyrogenic saline; format: functional, Rectum
Oryctolagus cuniculus [21] = experiment: Hyperthermic activity in New Zealand rabbit assessed as mean maximum rise in rectal temperature at 0.22 umol/kg administered in marginal ear vein as solution of amine hydrochloride in nonpyrogenic saline; format: functional, Rectum
Oryctolagus cuniculus [22] = experiment: Hyperthermic activity in New Zealand rabbit assessed as increase in rectal temperature measured as time to reach peak effect at 0.67 umol/kg administered in marginal ear vein as solution of amine hydrochloride in nonpyrogenic saline; format: functional, Rectum
Oryctolagus cuniculus [23] = experiment: Hyperthermic activity in New Zealand rabbit assessed as mean maximum rise in rectal temperature at 2 umol/kg administered in marginal ear vein as solution of amine hydrochloride in nonpyrogenic saline; format: functional, Rectum
Oryctolagus cuniculus [24] = experiment: Hyperthermic activity in New Zealand rabbit assessed as mean maximum rise in rectal temperature at 1 umol/kg administered in marginal ear vein as solution of amine hydrochloride in nonpyrogenic saline; format: functional, Rectum
Oryctolagus cuniculus [25] = experiment: Hyperthermic activity in New Zealand rabbit assessed as mean maximum rise in rectal temperature at 0.25 umol/kg administered in marginal ear vein as solution of amine hydrochloride in nonpyrogenic saline; format: functional, Rectum
Brain [26] = experiment: Drug uptake in Sprague-Dawley rat brain assessed as R to S enantiomeric ratio at 15 mg/kg, ip after 120 mins by electron-capture gas chromatographic analysis; format: ADME, organism-based; parameters: dose 15 mg/kg, route intraperitoneal; settings: in vivo, 2 h
Brain [27] = experiment: Drug uptake in Sprague-Dawley rat brain assessed as R to S enantiomeric ratio at 15 mg/kg, ip after 30 mins by electron-capture gas chromatographic analysis; format: ADME, organism-based; parameters: dose 15 mg/kg, route intraperitoneal; settings: in vivo, 0.5 h
Oryctolagus cuniculus [28] = experiment: Hyperthermic activity in New Zealand rabbit assessed as increase in rectal temperature measured as time to reach peak effect at 1 umol/kg administered in marginal ear vein as solution of amine hydrochloride in nonpyrogenic saline; format: functional, Rectum
Oryctolagus cuniculus [29] = experiment: Hyperthermic activity in New Zealand rabbit assessed as increase in rectal temperature measured as time to reach peak effect at 0.50 umol/kg administered in marginal ear vein as solution of amine hydrochloride in nonpyrogenic saline; format: functional, Rectum
Brain [30] = experiment: Drug uptake in Sprague-Dawley rat brain assessed as R to S enantiomeric ratio at 15 mg/kg, ip after 5 mins by electron-capture gas chromatographic analysis; format: ADME, organism-based; parameters: dose 15 mg/kg, route intraperitoneal; settings: in vivo
Brain [31] = experiment: Drug uptake in Sprague-Dawley rat brain assessed as R to S enantiomeric ratio at 15 mg/kg, ip after 60 mins by electron-capture gas chromatographic analysis; format: ADME, organism-based; parameters: dose 15 mg/kg, route intraperitoneal; settings: in vivo, 1 h
Brain [32] = experiment: Drug uptake in Sprague-Dawley rat brain assessed as R to S enantiomeric ratio at 15 mg/kg, ip after 15 mins by electron-capture gas chromatographic analysis; format: ADME, organism-based; parameters: dose 15 mg/kg, route intraperitoneal; settings: in vivo, 0.25 h
Oryctolagus cuniculus [33] = experiment: Hyperthermic activity in New Zealand rabbit assessed as mean maximum rise in rectal temperature at 0.50 umol/kg administered in marginal ear vein as solution of amine hydrochloride in nonpyrogenic saline; format: functional, Rectum
Oryctolagus cuniculus [34] = experiment: Hyperthermic activity in New Zealand rabbit assessed as increase in rectal temperature measured as time to reach peak effect at 0.25 umol/kg administered in marginal ear vein as solution of amine hydrochloride in nonpyrogenic saline; format: functional, Rectum

For COc1cc(CC(C)N)c(SC)cc1OC.Cl (racemic), the Time (Oryctolagus cuniculus [1]) was 105 min, the “fold change (FC)” value (Oryctolagus cuniculus [2]) was 0.022 and the “fold change (FC)” value (Oryctolagus cuniculus [3]) was 0.017. It also gave a Ratio (Brain [4]) of 1.09, a Ratio (Brain [5]) of 1.14 and a Ratio (Brain [6]) of 1.43. It also gave a T (Oryctolagus cuniculus [7]) of 0.82 °C, an Activity (Oryctolagus cuniculus [8]) of 14 µmol/kg and a Time (Oryctolagus cuniculus [9]) of 75 min. The T (Oryctolagus cuniculus [10]) was 1.01 °C.
COc1cc(OC)c(SC)cc1CC(C)N.Cl (racemic) was tested, and the Time (Oryctolagus cuniculus [11]) was 135 min, the “fold change (FC)” value (Oryctolagus cuniculus [2]) was 0.039 and the Time (Oryctolagus cuniculus [12]) was 120 min. The “fold change (FC)” value (Oryctolagus cuniculus [3]) was 0.028, the Time (Oryctolagus cuniculus [13]) was 180 min and the T (Oryctolagus cuniculus [14]) was 0.6 °C. The Ratio (Brain [4]) was 1.11, the Ratio (Brain [5]) was 1.1 and the Ratio (Brain [6]) was 1.35. For the same molecule, the Activity (Oryctolagus cuniculus [8]) was 9.77 µmol/kg, the T (Oryctolagus cuniculus [15]) was 1.09 °C and the T (Oryctolagus cuniculus [16]) was 1.62 °C.
With COc1cc(SC)c(OC)cc1CC(C)N.Cl (racemic) the Ratio (Brain [17]) was 1.62, the T (Oryctolagus cuniculus [18]) was 1.15 °C and the Time (Oryctolagus cuniculus [19]) was 120 min. For the same molecule, the “fold change (FC)” value (Oryctolagus cuniculus [2]) was 0.64, the Time (Oryctolagus cuniculus [20]) was 195 min and the “fold change (FC)” value (Oryctolagus cuniculus [3]) was 0.54. For the same molecule, the T (Oryctolagus cuniculus [21]) was 0.6 °C, the Ratio (Brain [4]) was 1.14 and the Ratio (Brain [5]) was 1.54. It also gave a Ratio (Brain [6]) of 1.23, a Time (Oryctolagus cuniculus [22]) of 165 min and an Activity (Oryctolagus cuniculus [8]) of 0.5 µmol/kg. It also gave a T (Oryctolagus cuniculus [23]) of 2.31 °C.
COc1cc(CC(C)N)c(OC)cc1C.Cl (racemic) was tested, and the T (Oryctolagus cuniculus [24]) was 2.85 °C, the T (Oryctolagus cuniculus [25]) was 0.8 °C and the Ratio (Brain [26]) was 1.34. The Ratio (Brain [27]) was 1.46, the Time (Oryctolagus cuniculus [28]) was 165 min and the Time (Oryctolagus cuniculus [29]) was 195 min. For the same molecule, the “fold change (FC)” value (Oryctolagus cuniculus [2]) was 1, the Ratio (Brain [30]) was 0.95 and the Ratio (Brain [31]) was 1.55. For the same molecule, the Ratio (Brain [32]) was 1.06, the T (Oryctolagus cuniculus [33]) was 1.98 °C and the “fold change (FC)” value (Oryctolagus cuniculus [3]) was 1. The Activity (Oryctolagus cuniculus [8]) was 0.27 µmol/kg and the Time (Oryctolagus cuniculus [34]) was 135 min.
With CCN(CC)C(=O)[C@@H]1C=C2c3cccc4[nH]cc(c34)C[C@H]2N(C)C1 [LYSERGIDE] the “fold change (FC)” value (Oryctolagus cuniculus [3]) was 33.
COc1cc(CCN)cc(OC)c1OC [MESCALINE] was tested, and the “fold change (FC)” value (Oryctolagus cuniculus [3]) was 0.0006.
